# Test system: cancer cell lines
# Experiment: Cancer cell proliferation activity of representative nucleosides, CellTiterGlo 72 h (Example 7, Tables 8 and 9)
# Assay type: cell-based
# Conditions: 72 h
# Procedure, shortened: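 Cancer cell lines seeded and incubated at 37° C overnight, then exposed to nucleosides (final DMSO 0.1%) for 72 h at 37° C with 5% or 10% CO2. Viability read by CellTiterGlo luminescence and normalized to 0.1% DMSO (100%) and 10 μM staurosporine (0%) controls.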
structure (smiles),measurement,setting,value
N#C[C@]1(CO)O[C@@H](n2ccc(N)nc2=O)C[C@@H]1O [compound 29],IC50,"72 h, 5637, bladder",0.23 µM
same,IC50,"CLS439, bladder",3 µM
same,IC50,"HS729, muscle",0.55 µM
same,IC50,"J82, bladder",0.84 µM
same,IC50,"JAR, placenta",> 50 µM
same,IC50,"MT3, breast",0.12 µM
same,IC50,"PC3, prostate",0.2 µM
same,IC50,"RD, muscle",1.4 µM
same,IC50,"T24, bladder",0.18 µM
same,IC50,"Homo sapiens, 22Rv1, 72 h, 22RV1, prostate",1.04 µM
same,IC50,"Homo sapiens, 786-0, 72 h, 786O, kidney",1.61 µM
same,IC50,"Homo sapiens, A204, 72 h, A204, muscle",0.03 µM
same,IC50,"Homo sapiens, A549, 72 h, A549, lung",0.88 µM
same,IC50,"Homo sapiens, A673, 72 h, A673, bone",0.2 µM
same,IC50,"Homo sapiens, A2780, 72 h, A2780, ovary",0.64 µM
same,IC50,"Homo sapiens, A-375, 72 h, A375, skin",0.57 µM
same,IC50,"Homo sapiens, A-431, 72 h, A431, skin",0.3 µM
same,IC50,"Homo sapiens, ACHN, kidney",0.71 µM
same,IC50,"Homo sapiens, ASPC1, 72 h, ASPC1, pancreas",0.28 µM
same,IC50,"Homo sapiens, BT-20, 72 h, BT20, breast",1.47 µM
same,IC50,"Homo sapiens, BXPC-3, 72 h, BXPC3, pancreas",0.35 µM
same,IC50,"Homo sapiens, C-33-A, C33A, endometrial",0.24 µM
same,IC50,"Homo sapiens, CAKI-1, 72 h, CAKI1, kidney",0.11 µM
same,IC50,"Homo sapiens, COLO 205, 72 h, COLO205, colon",0.16 µM
same,IC50,"Homo sapiens, COLO-678, 72 h, COLO678, colon",10.8 µM
same,IC50,"Homo sapiens, Ca-Ski, CASKI, endometrial",5.22 µM
same,IC50,"Homo sapiens, Caco-2, 72 h, CACO2, colon",> 50 µM
same,IC50,"Homo sapiens, Calu-6, 72 h, CALU6, lung",2.54 µM
same,IC50,"Homo sapiens, DLD-1, 72 h, DLD1, colon",0.77 µM
same,IC50,"Homo sapiens, DU-145, 72 h, DU145, prostate",0.33 µM
same,IC50,"Homo sapiens, EFO-21, 72 h, EFO21, ovary",1.19 µM
same,IC50,"Homo sapiens, EJ-28, 72 h, EJ28, bladder",2.34 µM
same,IC50,"Homo sapiens, Granta-519, 72 h, GRANTA-519, hematological",0.08 µM
same,IC50,"Homo sapiens, HCT-15, 72 h, HCT15, colon",0.81 µM
same,IC50,"Homo sapiens, HCT-116, 72 h, HCT116, colon",0.55 µM
same,IC50,"Homo sapiens, HEK293, 72 h, HEK293, kidney",12.7 µM
same,IC50,"Homo sapiens, HL-60, 72 h, HL-60, hematological",0.54 µM
same,IC50,"Homo sapiens, HT-29, 72 h, HT29, colon",1.06 µM
same,IC50,"Homo sapiens, HT-1080, 72 h, HT1080, connective tissue",0.35 µM
same,IC50,"Homo sapiens, HeLa, endometrial",0.75 µM
same,IC50,"Homo sapiens, HepG2, 72 h, HEPG2, liver",2.67 µM
same,IC50,"Homo sapiens, Hs-578T, HS578T, breast",1.79 µM
same,IC50,"Homo sapiens, IGROV-1, 72 h, IGROV1, ovary",1.37 µM
same,IC50,"Homo sapiens, IMR-90, 72 h, IMR90, lung",2.73 µM
same,IC50,"Homo sapiens, JEG-3, 72 h, JEG3, placenta",1.9 µM
same,IC50,"Homo sapiens, JIMT-1, 72 h, JIMT1, breast",0.21 µM
same,IC50,"Homo sapiens, K562, 72 h, K-562, hematological",1.61 µM
same,IC50,"Homo sapiens, Kasumi 1, 72 h, KASUMI-1, hematological",0.22 µM
same,IC50,"Homo sapiens, L-363, 72 h, L-363, hematological",> 50 µM
same,IC50,"Homo sapiens, LoVo, colon",0.44 µM
same,IC50,"Homo sapiens, MCF7, 72 h, MCF7, breast",> 50 µM
same,IC50,"Homo sapiens, MDA-MB-231, 72 h, MDAMB231, breast",0.13 µM
same,IC50,"Homo sapiens, MDA-MB-435, 72 h, MDAMB435, skin",2.12 µM
same,IC50,"Homo sapiens, MDA-MB-436, 72 h, MDAMB436, breast",0.36 µM
same,IC50,"Homo sapiens, MDA-MB-468, 72 h, MDAMB468, breast",1.2 µM
same,IC50,"Homo sapiens, MG-63, 72 h, MG63, bone",0.57 µM
same,IC50,"Homo sapiens, MHH-ES-1, 72 h, MHHES1, bone",0.21 µM
same,IC50,"Homo sapiens, MIA PaCa-2, 72 h, MIAPACA2, pancreas",1.93 µM
same,IC50,"Homo sapiens, MINO, hematological",0.07 µM
same,IC50,"Homo sapiens, MV4-11, 72 h, MV4-11, hematological",0.6 µM
same,IC50,"Homo sapiens, NCI-H23, 72 h, NCI-H23, lung",1.34 µM
same,IC50,"Homo sapiens, NCI-H82, 72 h, NCIH82, lung",> 50 µM
same,IC50,"Homo sapiens, NCI-H292, 72 h, NCIH292, lung",0.79 µM
same,IC50,"Homo sapiens, NCI-H460, 72 h, NCIH460, ung",2.05 µM
same,IC50,"Homo sapiens, OVCAR-3, 72 h, OVCAR3, ovary",0.58 µM
same,IC50,"Homo sapiens, OVCAR-4, 72 h, OVCAR4, ovary",4.18 µM
same,IC50,"Homo sapiens, PANC-1, 72 h, PANC1, pancreas",3.43 µM
same,IC50,"Homo sapiens, PLC-PRF-5, 72 h, PLCPRF5, liver",> 50 µM
same,IC50,"Homo sapiens, Panc1005, 72 h, PANC1005, pancreas",0.65 µM
same,IC50,"Homo sapiens, Ramos, hematological",0.17 µM
same,IC50,"Homo sapiens, SAOS-2, 72 h, SAOS2, bone",0.11 µM
same,IC50,"Homo sapiens, SF-268, 72 h, SF268, brain",0.35 µM
same,IC50,"Homo sapiens, SF-295, 72 h, SF295, brain",1.13 µM
same,IC50,"Homo sapiens, SK-BR-3, 72 h, SKBR3, breast",0.65 µM
same,IC50,"Homo sapiens, SK-HEP1, 72 h, SKHEP1, liver",0.24 µM
same,IC50,"Homo sapiens, SK-LMS-1, 72 h, SKLMS1, uterus",3.74 µM
same,IC50,"Homo sapiens, SK-MEL-5, 72 h, SKMEL5, skin",> 50 µM
same,IC50,"Homo sapiens, SK-MEL-28, 72 h, SKMEL28, skin",2.63 µM
same,IC50,"Homo sapiens, SK-N-AS, SKNAS, brain",4.41 µM
same,IC50,"Homo sapiens, SK-N-SH, SKNSH, brain",> 50 µM
same,IC50,"Homo sapiens, SK-OV-3, 72 h, SKOV3, ovary",0.89 µM
same,IC50,"Homo sapiens, SNB-75, 72 h, SNB75, brain",0.84 µM
same,IC50,"Homo sapiens, SU-DHL10, 72 h, SU-DHL-10, hematological",0.5 µM
same,IC50,"Homo sapiens, SU-DHL-6, 72 h, SU-DHL-6, hematological",0.8 µM
same,IC50,"Homo sapiens, SW-620, 72 h, SW620, colon",2.64 µM
same,IC50,"Homo sapiens, TE-671, 72 h, TE671, muscle",1.75 µM
same,IC50,"Homo sapiens, THP-1, 72 h, THP-1, hematological",0.97 µM
same,IC50,"Homo sapiens, U2OS, bone",5.32 µM
same,IC50,"Homo sapiens, U-87 MG, U87MG, brain",0.5 µM
same,IC50,"Homo sapiens, UMUC3, 72 h, UMUC3, bladder",1.16 µM
same,IC50,"Homo sapiens, UO-31, 72 h, UO31, kidney",0.66 µM
same,IC50,"Homo sapiens, WSU-NHL, hematological",0.22 µM
same,IC50,"NCI-H358M, NCIH358M, lung",0.04 µM
same,IC50,"PBMC, hematological",0.35 µM
same,IC50,"RD-ES, RDES, bone",1.62 µM

# From US20230293526A1, “METHOD FOR TREATING CANCER WITH A REVERSE TRANSCRIPTASE INHIBITOR” (PrimeFour Therapeutics, Inc., priority 2020, published 2023)
